According to article PMC12040169 (PLOS Biology, 2025):

Assay: in vitro
Details: human, hela cells, % viability

SMILES	viability at 28.5 h, 10 µM
O=C(O)C(O)C(O)C(O)CO (stereo not drawn) [CBK278306G]	89.3%
CCn1c2ccccc2c2cc(NC(=O)CN(C)S(=O)(=O)c3ccc(C)cc3)ccc21 [CBK266756]	92.8%
Nc1ccc(Cc2ccc(N)c(O)c2)cc1O [CBK261149]	100%
CSc1nc(N)cc(N2CCN(C(=O)OC(C)(C)C)CC2)n1 [CBK003458]	111%
O=C(Cn1ncc2cccn2c1=O)NCc1ccc(F)cc1 [CBK283851]	82.8%
COC(=O)c1cccn2cc(CN(CC#N)C3CC3)nc12 [CBK305821]	105%
CC(Cc1cccs1)NC(=O)C(C)n1ccnc1 (stereo not drawn) [CBK282050]	89.9%
CCn1c(CC2CCN(C(=O)c3ccc(C)c(C)c3)CC2)nn(C)c1=O [CBK307133]	87.8%
O=C(NCC1COc2ccccc2O1)N1CCCCC1CO (stereo not drawn) [CBK156162]	103%
CC(=O)N1CCN(C(=O)C(C)S(=O)(=O)c2ccccc2F)CC1 (stereo not drawn) [CBK305603]	97.7%
CN1CCN(C(=O)COc2ccc(S(=O)(=O)Nc3ccc(F)cc3)cc2)CC1 [CBK268454]	94.5%
Cc1ccc2c(c1)nc(CNC(=O)NC1CCCc3cn[nH]c31)n2C (stereo not drawn) [CBK305554]	77.5%
O=C(O)CNC(=O)[C@H]1CC[C@H](Cn2cnc3ccccc3c2=O)CC1 [CBK286714]	97%
Cc1nn(Cc2ccc(C(=O)N3CCN(Cc4ccccc4)CC3)o2)c(C)c1Br [CBK265796C]	88.8%
CC(=O)c1cccc(NC(=O)Cn2nc(C)ccc2=O)c1 [CBK304653]	101%
C#CCNC(=O)[C@H]1O[C@H](CCN(C)CC#C)CC[C@@H]1O [CBK288727]	89.6%
Cc1cc(N)cc(C)c1O [CBK012062C]	89.9%
O=c1[nH]cnc2c1ncn2[C@@H]1O[C@H](CO)[C@H](O)C1O (stereo partly drawn) [CBK201186]	98.3%
CC1C2CCCN2CCN1Cc1cccc(Oc2ccccc2)c1 (stereo not drawn) [CBK262880]	94.9%
Nc1c(-c2cccc(C(F)(F)F)c2)cnc2ncccc12 [CBK083710]	105%
CC(C)(C)c1cc(C(=O)N2CCn3cc(C(F)(F)F)nc3C2)[nH]n1 [CBK284748]	87.7%
O=C1c2ccccc2CN1c1cccc2ccccc12 [CBK113190]	85.3%
Cc1ccc(C2C=C(c3ccccc3)Nc3nc(N4C(=O)CCC4=O)nn32)cc1 (stereo not drawn) [CBK266197]	98.6%

SMILES	viability at 28.5 h, 10 µM
CCOc1cc(/C=C2\S/C(=N/c3ccc(S(N)(=O)=O)cc3)NC2=O)c(Br)cc1O [CBK265622]	95%
O=C(Nc1ccc(F)cc1)c1ccsc1NS(=O)(=O)Cc1ccccc1[N+](=O)[O-] [CBK042313]	91.7%
O=[N+]([O-])c1ccccc1S(=O)(=O)Nc1ccc(S(=O)(=O)Nc2ccccc2)cc1 [CBK264796]	106%
CC(Oc1cccc(Cl)c1)c1nc(-c2cccs2)no1 (stereo not drawn) [CBK293984]	90.8%
Cc1ccc(/N=N/N(CC(O)C(O)C(O)CO)c2ccc(C)c(C)c2)cc1C (stereo not drawn) [CBK262705]	90%
CN1CCN(S(=O)(=O)c2ccc(NC(=O)Cc3ccc([N+](=O)[O-])cc3)cc2)CC1 [CBK268161]	121%
O=C(Nc1nc2nccc(-c3ccccc3)n2n1)c1cccc([N+](=O)[O-])c1 [CBK265414]	87.6%
Fc1ccccc1COc1cccc(CNCCN2CCOCC2)c1 [CBK278148C]	102%
CCCc1n[nH]c(Cc2c(Cl)cccc2Cl)c1C(=O)OCC [CBK113275]	88.9%
CCCC(=O)Nc1ccc(OCc2nnc(C)o2)c(C(C)=O)c1 [CBK305943]	92.9%
COc1ccccc1N1CCN(C(=O)c2snnc2C)CC1 [CBK057792]	92.8%
Cc1n[nH]cc1C(=O)NC[C@H]1CC[C@H](c2cc(C(=O)NC(C)C)c3ccccc3n2)CC1 [CBK285862]	96.3%
CCc1ccc(C(O)CNC2CCN(CCOC)CC2)cc1 (stereo not drawn) [CBK304259]	104%
CC(C)(C)C(=O)NC(NC(=S)Nc1sc2c(c1C(N)=O)CCCC2)C(Cl)(Cl)Cl (stereo not drawn) [CBK261052]	94.7%
C=CCN1C(=O)CC2(C1=O)C(=O)N(CCn1cnc3c1c(=O)n(C)c(=O)n3C)c1ccc(Cl)cc12 (stereo not drawn) [CBK075410]	94.8%
CCN1CCN(c2c(Cl)cccc2NC(=O)CSc2ccc(Cl)cc2)CC1 [CBK267606]	90.7%
COc1cccc(NC(=O)N(CCCO)C2CCc3ccccc32)c1 (stereo not drawn) [CBK305397]	95%
CN1CCN(c2ccc(NC(=S)NC(=O)c3cc(Br)ccc3Cl)cc2)CC1 [CBK266254C]	96.2%
CCN(CC)c1ccc(C(=O)Cn2c(=O)n(C(=O)CCCc3ccc(OC)cc3)c3ccccc32)cc1 [CBK106503]	89.6%
c1ccc(CSc2ccc3nnc(-c4ccncc4)n3n2)cc1 [CBK287625]	94.4%
COc1ccc(CN2CCN(C(=O)c3cccc(F)c3)CC2)cc1 [CBK304396]	97%
COc1ccc([C@@H]2CCN(C(=O)Cc3ccccc3F)C[C@H]2O)cc1 [CBK283756]	100%
O=C(O)CNS(=O)(=O)c1cc(Br)c(Cl)s1 [CBK034455]	114%

SMILES	viability at 28.5 h, 10 µM
Cc1cc2ccccc2n1CCC(=O)NC1CCCOC1 (stereo not drawn) [CBK283152]	91.1%
CC(C)(C)NC(=O)COc1ccc(CNCc2ccccn2)cc1 [CBK268420C]	95.5%
Cc1ccccc1-c1nnc(SC(C)C)n1CCN(C)S(C)(=O)=O [CBK200088]	101%
COc1nc(OC)nc(OC2=CC(=O)CC(C)(C)C2)n1 [CBK020772]	95.5%
COC(=O)/C=C/c1cccc(-c2cnc(N)c(-c3ccc(O)cc3)n2)c1 [CBK125689]	83.7%
Cc1cc(=O)[nH]c(-n2nc(C)cc2NC(=O)c2ccccc2C)n1 [CBK287654]	92.5%
O=C(CN1CCCC1=O)N1CCN(C(=O)c2ccc(Br)o2)CC1 [CBK034530]	90.8%
NC(=O)NC(CC(=O)N1CCCC1c1ccncc1)c1cccc(Br)c1 (stereo not drawn) [CBK306345]	92.7%
Cc1csc(-c2ccc(C(=O)N(C)CCN(C)C)c(N(C)C)n2)c1 [CBK106088]	94.1%
O=C(O)c1cccc(OCCNS(=O)(=O)c2ccc(N3CCCC3=O)cc2)c1 [CBK299779]	97.3%
Cc1cc(C)c(C)c(CSCc2nc3ccccc3[nH]2)c1C [CBK266466]	98.8%
CC(C)c1ccc(/C=C/C(=O)NCCC(N)=O)cc1 [CBK149646]	81.9%
Brc1csc(CN2CCN3CCCC3C2C2CCCCC2)c1 (stereo not drawn) [CBK026298]	103%
Cc1cc(NC(=O)c2cccc(C(F)(F)F)c2)c2ccccc2n1 [CBK116263]	90%
CN(C)c1ccc(NC(=O)CN2C(=O)[C@H]3CCCN3c3ncccc32)cc1 [CBK286202]	118%
OCCN(CC#CCC(O)(c1ccccc1)c1ccccc1)CCO [CBK263623]	94.1%
c1cncc(Nc2cccc(-c3ccco3)n2)c1 [CBK037742]	100%
S=C1NCN(Cc2ccccc2)CN1c1ccccc1 [CBK263536]	91.3%
Cc1ccccc1COc1cccc(Cl)c1Cl [CBK002607]	90.6%
COc1ccc(C2(C(=O)NCCCN3CCN(C)CC3)CC2)cc1 [CBK149822]	101%
CS(=O)(=O)N/N=C/c1cccc(Br)c1 [CBK026427]	92.5%
C=Cn1cc(CN2CCC(O)(c3ccccc3C)CC2)c(C)n1 [CBK282580]	93.7%
O=C(CCCc1ccccc1)Nc1c(F)cc(F)cc1OC1CCNCC1 [CBK050222T]	96.1%

SMILES	viability at 28.5 h, 10 µM
CCN(CC)CCCNC(=O)N1CCCCC1CO (stereo not drawn) [CBK155982]	97.9%
Cc1cccc(N2NC(=O)/C(=C/c3cccn3-c3ccc(S(N)(=O)=O)cc3)C2=O)c1 [CBK265660]	93.9%
CC(C)(C)c1csc(NCc2c(O)ccc3ccccc23)n1 [CBK078381]	92.9%
CC1(C)CC(=O)C=C(NCC2CCNCC2)C1 [CBK027580]	87.9%
CCC1(CCc2ccccc2)CC(O)=CC(=O)O1 (stereo not drawn) [CBK012790]	98.5%
CN(C)/C=N/c1nc2c(ccn2C2CC(O)C(CO)O2)c(=O)[nH]1 (stereo not drawn) [CBK201276]	107%
COc1ccc2c3c(cc(Cl)cc13)CC(N)C2 (stereo not drawn) [CBK016450C]	84.2%
C[C@@H](Nc1nccnc1-c1cccc(F)c1)c1ccccc1 [CBK036733]	98.3%
N#CCCCN1CCC(Oc2nccnc2OCc2ccc(Cl)cc2Cl)CC1 [CBK161568]	94.4%
CCOC(=O)c1sc(NS(=O)(=O)Cc2ccccc2)nc1C [CBK047448]	105%
O=C(Nc1ccccc1Cl)c1ccc(NCCN2C(=O)c3ccccc3C2=O)c([N+](=O)[O-])c1 [CBK267149]	95.8%
c1cncc(-c2cncc(NCc3ccc4c(c3)OCO4)n2)c1 [CBK065313]	94.6%
O=c1c2c(nc(SCCc3ccccc3)n1CCc1ccccc1)-c1ccccc1CC21CCCCC1 [CBK262661]	86.8%
CC(c1nc2ccccc2[nH]1)N1CCC2(CC1)NCCc1c2[nH]c2ccccc12 (stereo not drawn) [CBK040061]	90.3%
CN(CC(=O)NCc1ccc(OCC(N)=O)cc1)C1CCCCC1 [CBK306331]	81.7%
CC[C@H](Cn1ncc2ccccc2c1=O)NC(=O)C(C)(C)C [CBK284304]	90.2%
COc1ccccc1C1C(C(=O)c2sc(C)nc2C)=C(O)C(=O)N1CCCN1CCOCC1 (stereo not drawn) [CBK266592]	113%
COC(=O)c1ccc(NC(=O)CSc2nnc(-c3ccncc3)s2)cc1 [CBK269239]	103%
CN(C)CCN(C)C(=O)c1ccc(-c2cc3ccccc3o2)nc1NCc1cccnc1 [CBK076160]	90.8%
CC(C)N(C(=O)Cn1nc(-c2cccs2)ccc1=O)C(C)C [CBK282638]	90%
Cc1cc(N2CCN(C(=O)CCc3ccccc3)CC2)nc(C(C)C)n1 [CBK305711]	99.3%
